# According to patent US20240301409A1, “Chemically Modified Small Activating RNA” (RACTIGEN THERAPEUTICS, priority 2021, published 2024):
# Test system: T24 cells
# Assay: Cellular proliferation assay (CCK8) in T24 cells, alone and combined with Mitomycin C or valrubicin
# Assay type: cell-based, human
# Summary of the method: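 Cells transfected with saRNA RAG1-40-31 (0.1–50 nM) for 24 h, then Mitomycin C or valrubicin (1–10000 nM) added in paired concentrations; single-agent saRNA at 10 nM for 72 h. Viability by CCK8 absorbance at 450 nm after 1 h at 37 °C, as % of blank transfection control.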
substance,measurement,setting,value
"RAG1-40-31: saRNA duplex: sense fCfCAACUCAUUCUCCAAG*U*C (SEQ ID NO 16); antisense U*A*fCfUfUGGAGAAfUGAGfUfUGG*fC*A (SEQ ID NO 12) (sense CCAACUCAUUCUCCAAGUC; antisense UACUUGGAGAAUGAGUUGGCA; 2'-F and phosphorothioate modifications; modified_base (1)..(2) (1,2)=2′-fluoro; modified_base (17)..(19) (17,18,19)=phosphorothioate (PS) backbone modification; modified_base (2)..(21) (2,3,19,20,21)=phosphorothioate (PS) backbone modification; modified_base (3)..(20) (3,4,5,12,16,17,20)=2′-fluoro)",Relative proliferation proportion of T24 cells,RAG1-40-31 50 nM + valrubicin 1000 nm,10.9%
same,Relative proliferation proportion of T24 cells,RAG1-40-31 50 nM + valrubicin 10000 nm,3.1%
same,Relative proliferation proportion of T24 cells,"RAG1-40-31 50 nM, Control (no MMC)",14.7%
same,Relative proliferation proportion of T24 cells,"RAG1-40-31 50 nM, Control (no valrubicin)",13.8%
same,Combination Index (CI),"T24 cells, RAG1-40-31 0.1 nM + MMC 1 nM",0.42
same,Combination Index (CI),"T24 cells, RAG1-40-31 0.1 nM + MMC 10 nM",1.59
same,Combination Index (CI),"T24 cells, RAG1-40-31 0.1 nM + MMC 100 nM",0.64
same,Combination Index (CI),"T24 cells, RAG1-40-31 0.1 nM + MMC 1000 nM",0.49
same,Combination Index (CI),"T24 cells, RAG1-40-31 0.1 nM + MMC 10000 nM",1.05
same,Combination Index (CI),"T24 cells, RAG1-40-31 0.1 nM + Valrubicin 10000 nM",0.38
same,Combination Index (CI),"T24 cells, RAG1-40-31 0.1 nM + valrubicin 1 nM",1.9
same,Combination Index (CI),"T24 cells, RAG1-40-31 0.1 nM + valrubicin 10 nM",17.16
same,Combination Index (CI),"T24 cells, RAG1-40-31 0.1 nM + valrubicin 100 nM",11.04
same,Combination Index (CI),"T24 cells, RAG1-40-31 0.1 nM + valrubicin 1000 nM",1.48
same,Combination Index (CI),"T24 cells, RAG1-40-31 0.5 nM + MMC 1 nM",0.97
same,Combination Index (CI),"T24 cells, RAG1-40-31 0.5 nM + MMC 10 nM",1.40
same,Combination Index (CI),"T24 cells, RAG1-40-31 0.5 nM + MMC 100 nM",0.67
same,Combination Index (CI),"T24 cells, RAG1-40-31 0.5 nM + MMC 1000 nM",0.46
same,Combination Index (CI),"T24 cells, RAG1-40-31 0.5 nM + MMC 10000 nM",1.06
same,Combination Index (CI),"T24 cells, RAG1-40-31 0.5 nM + Valrubicin 10000 nM",0.4
same,Combination Index (CI),"T24 cells, RAG1-40-31 0.5 nM + valrubicin 1 nM",2.71
same,Combination Index (CI),"T24 cells, RAG1-40-31 0.5 nM + valrubicin 10 nM",6.02
same,Combination Index (CI),"T24 cells, RAG1-40-31 0.5 nM + valrubicin 100 nM",8.68
same,Combination Index (CI),"T24 cells, RAG1-40-31 0.5 nM + valrubicin 1000 nM",0.92
same,Combination Index (CI),"T24 cells, RAG1-40-31 1 nM + MMC 1 nM",0.96
same,Combination Index (CI),"T24 cells, RAG1-40-31 1 nM + MMC 10 nM",0.88
same,Combination Index (CI),"T24 cells, RAG1-40-31 1 nM + MMC 100 nM",0.69
same,Combination Index (CI),"T24 cells, RAG1-40-31 1 nM + MMC 1000 nM",0.41
same,Combination Index (CI),"T24 cells, RAG1-40-31 1 nM + MMC 10000 nM",0.84
same,Combination Index (CI),"T24 cells, RAG1-40-31 1 nM + Valrubicin 10000 nM",0.33
same,Combination Index (CI),"T24 cells, RAG1-40-31 1 nM + valrubicin 1 nM",1.23
same,Combination Index (CI),"T24 cells, RAG1-40-31 1 nM + valrubicin 10 nM",0.92
same,Combination Index (CI),"T24 cells, RAG1-40-31 1 nM + valrubicin 100 nM",1.02
same,Combination Index (CI),"T24 cells, RAG1-40-31 1 nM + valrubicin 1000 nM",0.93
same,Combination Index (CI),"T24 cells, RAG1-40-31 5 nM + MMC 1 nM",0.61
same,Combination Index (CI),"T24 cells, RAG1-40-31 5 nM + MMC 10 nM",0.60
same,Combination Index (CI),"T24 cells, RAG1-40-31 5 nM + MMC 100 nM",0.45
same,Combination Index (CI),"T24 cells, RAG1-40-31 5 nM + MMC 1000 nM",0.24
same,Combination Index (CI),"T24 cells, RAG1-40-31 5 nM + MMC 10000 nM",0.46
same,Combination Index (CI),"T24 cells, RAG1-40-31 5 nM + Valrubicin 10000 nM",0.12
same,Combination Index (CI),"T24 cells, RAG1-40-31 5 nM + valrubicin 1 nM",0.73
same,Combination Index (CI),"T24 cells, RAG1-40-31 5 nM + valrubicin 10 nM",0.59
same,Combination Index (CI),"T24 cells, RAG1-40-31 5 nM + valrubicin 100 nM",0.99
same,Combination Index (CI),"T24 cells, RAG1-40-31 5 nM + valrubicin 1000 nM",0.47
same,Combination Index (CI),"T24 cells, RAG1-40-31 10 nM + MMC 1 nM",0.52
same,Combination Index (CI),"T24 cells, RAG1-40-31 10 nM + MMC 10 nM",0.77
same,Combination Index (CI),"T24 cells, RAG1-40-31 10 nM + MMC 100 nM",0.47
same,Combination Index (CI),"T24 cells, RAG1-40-31 10 nM + MMC 1000 nM",0.19
same,Combination Index (CI),"T24 cells, RAG1-40-31 10 nM + MMC 10000 nM",0.30
same,Combination Index (CI),"T24 cells, RAG1-40-31 10 nM + Valrubicin 10000 nM",0.09
same,Combination Index (CI),"T24 cells, RAG1-40-31 10 nM + valrubicin 1 nM",0.82
same,Combination Index (CI),"T24 cells, RAG1-40-31 10 nM + valrubicin 10 nM",0.62
same,Combination Index (CI),"T24 cells, RAG1-40-31 10 nM + valrubicin 100 nM",0.83
same,Combination Index (CI),"T24 cells, RAG1-40-31 10 nM + valrubicin 1000 nM",0.63
same,Combination Index (CI),"T24 cells, RAG1-40-31 25 nM + MMC 1 nM",0.92
same,Combination Index (CI),"T24 cells, RAG1-40-31 25 nM + MMC 10 nM",1.38
same,Combination Index (CI),"T24 cells, RAG1-40-31 25 nM + MMC 100 nM",0.73
same,Combination Index (CI),"T24 cells, RAG1-40-31 25 nM + MMC 1000 nM",0.28
same,Combination Index (CI),"T24 cells, RAG1-40-31 25 nM + MMC 10000 nM",0.36
same,Combination Index (CI),"T24 cells, RAG1-40-31 25 nM + Valrubicin 10000 nM",0.1
same,Combination Index (CI),"T24 cells, RAG1-40-31 25 nM + valrubicin 1 nM",0.97
same,Combination Index (CI),"T24 cells, RAG1-40-31 25 nM + valrubicin 10 nM",1.25
same,Combination Index (CI),"T24 cells, RAG1-40-31 25 nM + valrubicin 100 nM",1.25
same,Combination Index (CI),"T24 cells, RAG1-40-31 25 nM + valrubicin 1000 nM",0.67
same,relative proliferation proportions of cells,"T24 cells, RAG1-40-31 25 nM and 50 nM + Mitomycin C 1, 10, 100, 1000 and 10000 nM",lower than 21%
same,relative proliferation proportion of cells,"T24 cells, RAG1-40-31 25 nM and 50 nM + valrubicin 1, 10, 100, 1000 and 10000 nM",lower than 21%
same,Combination Index (CI),"T24 cells, RAG1-40-31 50 nM + MMC 1 nM",2.59
same,Combination Index (CI),"T24 cells, RAG1-40-31 50 nM + MMC 10 nM",2.60
same,Combination Index (CI),"T24 cells, RAG1-40-31 50 nM + MMC 100 nM",1.31
same,Combination Index (CI),"T24 cells, RAG1-40-31 50 nM + MMC 1000 nM",0.50
same,Combination Index (CI),"T24 cells, RAG1-40-31 50 nM + MMC 10000 nM",0.47
same,Combination Index (CI),"T24 cells, RAG1-40-31 50 nM + Valrubicin 10000 nM",0.19
same,Combination Index (CI),"T24 cells, RAG1-40-31 50 nM + valrubicin 1 nM",2.12
same,Combination Index (CI),"T24 cells, RAG1-40-31 50 nM + valrubicin 10 nM",2.3
same,Combination Index (CI),"T24 cells, RAG1-40-31 50 nM + valrubicin 100 nM",2.3
same,Combination Index (CI),"T24 cells, RAG1-40-31 50 nM + valrubicin 1000 nM",1.04
same,relative proliferation proportions of cells,"T24 cells, RAG1-40-31 0.1-50 nM + Mitomycin C 1000 and 10000 nM",lower than 18%
same,relative proliferation proportions of cells,"T24 cells, RAG1-40-31 0.1-50 nM + valrubicin 1000 nM and 10000 nM",lower than 60%
same,relative proliferation proportions of cells,"T24 cells, RAG1-40-31 5-50 nM + Mitomycin C 1, 10, 100, 1000 and 10000 nM",lower than 40%
same,relative proliferation proportions of cells,"T24 cells, RAG1-40-31 5-50 nM + valrubicin 1, 10, 100, 1000 and 10000 nM",lower than 40%
same,"effect of combined use with Mitomycin C or valrubicin, in words",T24 tumor cells,synergistic effect
